Reference: patent US20050032861A1, “Oxazolidines containing a sulfonimid group as antibiotics” (priority 2001, published 2005)
In brackets after ≈: the same amount, converted by molar mass.

Assays:
Format in all cases: cell-based
Haemophilus influenzae = assay: MIC, broth-dilution, fastidious Gram negative organisms; conditions: hemin and NAD, 24 h at 37° C.
Description: (§1) The following results were obtained on a standard in-vitro test system. The activity is described in terms of the minimum inhibitory concentration (MIC) determined by the broth-dilution technique with an inoculum size of 5×10^4 CFU/spot. Typically, compounds are active in the range 0.01 to 256 μg/ml. Fastidious Gram negative organisms were tested in Mueller-Hinton broth supplemented with hemin and NAD, grown aerobically for 24 h at 37° C., and with an innoculum of 5×10^4 CFU/well.

Moraxella catarrhalis = assay: as above; conditions: hemin and NAD, 24 h at 37° C.
Description: as §1

[1] = tested on: Staphylococcus aureus MSQS; assay: MIC, broth-dilution, Staphylococci in broth; conditions: Staphylococcus aureus MSQS (methicillin sensitive and quinolone sensitive); 37° C., 16-24 hours
Description: (§2) The following results were obtained on a standard in-vitro test system. The activity is described in terms of the minimum inhibitory concentration (MIC) determined by the broth-dilution technique with an inoculum size of 5×10^4 CFU/spot. Typically, compounds are active in the range 0.01 to 256 μg/ml.
(§3) Staphylococci were tested in broth using an inoculum of 5×10^4 CFU/spot and an incubation temperature of 37° C. for 16-24 hours.
(§4) • MSQS=methicillin sensitive and quinolone sensitive • MRQR=methincillin resistant and quinolone resistant

[2] = tested on: Staphylococcus aureus MRQR; assay: MIC, broth-dilution, Staphylococci in broth; conditions: Staphylococcus aureus MRQR (methicillin resistant and quinolone resistant); 37° C., 16-24 hours
Description: as §2, §3, §4

Streptococcus pyogenes = assay: MIC, broth-dilution, Streptococci in Mueller-Hinton broth with horse blood; conditions: 37° C. aerobically, 24 hours
Description: as §1, with “Streptococci” for “Fastidious Gram negative organisms”, “2.5% clarified lake horse blood” for “hemin and NAD, grown aerobically for 24 h at 37° C., and”, “10^4 CFU/well and an incubation temperature of 37° C. aerobically for 24 hours.” for “5×10^4 CFU/well.”

Streptococcus pneumoniae = assay: as above; conditions: 37° C. aerobically, 24 hours
Description: as §1, with “Streptococci” for “Fastidious Gram negative organisms”, “2.5% clarified lake horse blood” for “hemin and NAD, grown aerobically for 24 h at 37° C., and”, “10^4 CFU/well and an incubation temperature of 37° C. aerobically for 24 hours.” for “5×10^4 CFU/well.”

MIC (Haemophilus influenzae): 8 µg/mL (≈ 19.5 µM)
MIC (Moraxella catarrhalis): 8 µg/mL (≈ 19.5 µM)
MIC [1]: 1 µg/mL (≈ 2.44 µM)
MIC [2]: 8 µg/mL (≈ 19.5 µM)
MIC (Streptococcus pyogenes): 2 µg/mL (≈ 4.88 µM)
MIC (Streptococcus pneumoniae): 2 µg/mL (≈ 4.88 µM)
SMILES: N=S1(=O)CC=C(c2c(F)cc(N3C[C@H](Cn4ccnn4)OC3=O)cc2F)CC1 (stereo partly drawn) [Example 2, (5R)-3-[3,5-Difluoro-4-(1RS-1-imino-1-oxo-3,6-dihydrothiopyran-4-yl)-phenyl]-5-(1H-1,2,3-triazol-1-ylmethyl)-2-oxazolidinone]
